Experimental data: patent US11712456B2, “Hemp extract for treatment of pain in animals” (Portland Technology Holdings LLC, priority 2018, dated 2023)
Several values for one entry are separate records, joined by “and”; a condition that tells them apart may be missing. Equal entries are not always repeated.

Test: Feline safety study: cannabidiol quantification in serum and pharmacokinetics (LC-MS/MS)
Type: in vivo
Conditions: individual cats; oral administration of 2/mg/kg cannabidiol in capsule form
Procedure: On the first day of dosing, blood was collected for a PK analysis from 6 of the 8 cats. The most cooperative cats were selected for the PK analysis. […] Samples were placed into a red top clotting tube with no serum separator. […] The harvested serum was placed in cyrovials stored at −70° C. Each tube was labeled with the cat id, date of collection and collection time point. Samples were shipped overnight on dry ice to the Proteomics & Metabolomics Facility at Colorado State University.
Aliquots of feline serum were delivered to the facility on dry ice and stored at −80° C. upon receipt. […] 200 μL of cold (−20 C) 100% Acetonitrile (spiked with 60 ng/mL of d3-CBD) was added to each sample and vortexed at room temperature for 5 minutes. 200 μL of water was added and vortexed for an additional 5 minutes. 1 ml of 100% hexane was then added to each sample and vortexed for a final 5 minutes. […] The upper hexane layer was transferred to new-labeled glass vials (˜900 uL per sample), carefully avoiding the middle and lower layers. Samples were concentrated to dryness under N2 and resuspended in 60 μL of 100% acetonitrile.
An 8 point standard curve of CBD was generated in matrix background using a blank serum. Concentrations ranged from 0 ng/mL 1000 ng/mL (3.2× dilution series). 50 uL of each spiked serum sample was extracted as above.
LC-MS/MS was performed on a Waters Acquity M-Class UPLC coupled to a Waters Xevo TQ-S triple quadrupole mass spectrometer. […] Flow rate was 3.0 μL/min and injection volume was 2.0 μL. Samples were held at 6° C. in the autosampler, and the column was operated at 70° C. The MS was operated in selected reaction monitoring (SRM) mode, where a parent ion is selected by the first quadrupole, fragmented in the collision cell, then a fragment ion selected for by the third quadrupole. Product ions, collision energies, and cone voltages were optimized for each analyte by direct injection of individual synthetic standards. Inter-channel delay was set to 3 ms. The MS was operated in positive ionization mode with the capillary voltage set to 3.6 kV. […]
All Raw data files were imported into the Skyline open source software package. […] Peak areas were extracted for target compounds detected in biological samples and normalized to the peak area of the appropriate internal standard in each sample using in-house R Script (TQS-tools). CBD concentrations were calculated in nanograms per milliliter of extract (0.06 mL) and then back calculated to nanograms per mL of serum (0.05 mL of serum). […]
LOD are calculated based on the standard deviation of the response (Sy) of the 0 point calibration standard (i.e. 0 ng/mL CBD as an estimate on noise) and the slope of the calibration curve (S) at levels approximating the LOD according to the formula: LOD=3*(Sy/S). […]

With `C=C(C)[C@@H]1CCC(C)=C[C@H]1c1c(O)cc(CCCCC)cc1O` [cannabidiol] as the compound, how does the “AUC 0-t = Area under the curve (0 time to time of last collection [24 hr])” value read?
Its value is 265.0 ng·h/mL and 54.2 ng·h/mL and 42.4 ng·h/mL and 212.2 ng·h/mL and 125.0 ng·h/mL and 194.1 ng·h/mL and 134.2 ng·h/mL and 60.2 ng·h/mL.

What about the “Cmax = Maximum concentration” value of the same compound?
The value was 8.8 ng/mL and 12.1 ng/mL and 75.3 ng/mL and 40.5 ng/mL and 53.3 ng/mL and 21.2 ng/mL.

And the “Tmax = Time of maximum concentration” value?
Its value is 4 h and 1 h.

And the “T½ el = Half-life of elimination” value?
Its value is 2.3 h and 1.3 h and 1.7 h.
